In patent US12653190B2, “Heteroaryl-triazole compounds as pesticides” (Bayer Aktiengesellschaft, priority 2020, dated 2026) one finds pest or weed control and mortality data, which are given here for 14 molecules.

Each structure is given as a SMILES string.

Format in all cases: in vivo
Assay [1] concerns Rhipicephalus (Boophilus) microplus larvae (strain Parkhurst, resistant against synthetic pyrethroids). Kind of assay: Rhipicephalus (Boophilus) microplus in-vitro contact test, larval cattle tick. The note with it: 5 μg/cm^2 (=500 g/ha), after 48 hours, read-out: efficacy (larvae dead or moribund). The procedure: Rhipicephalus (Boophilus) microplus—In-Vitro Contact Tests Larval Cattle Tick (Strain Parkhurst, Resistant Against Synthetic Pyrethroids)
9 mg compound is solved in 1 mL acetone and diluted with acetone to the desired concentration. 250 μL of the test solution is filled in 25 mL glass test tubes and homogeneously distributed on the inner walls by rotation and tilting on a shaking device (2 h at 30 rpm). With a compound concentration of 900 ppm, an inner surface of 44.7 cm^2 and a homogeneous distribution, a dose of 5 μg/cm^2 is achieved.
After the solvent has evaporated, each test tube is filled with 20-50 cattle tick larvae (Rhipicephalus microplus), closed with a perforated lid and incubated in a horizontal position at 85% relative humidity and 27° C. in an incubator. After 48 hours efficacy is determined. The larvae are patted on the ground of the tubes and negative geotactic behavior is recorded.
An efficacy of 100% means all larvae are dead or moribund; 0% means no larvae are dead or moribund.

For assay [2], the system named is fall armyworm larvae (Spodoptera frugiperda). As to the kind of experiment: Spodoptera frugiperda spray test. The note with it: in Zea mays, 168 h. As for the experimental part: Spodoptera frugiperda—Spray Test
(§1) • Solvent: 78.0 parts by weight acetone • 1.5 parts by weight dimethylformamide • Emulsifier: alkylarylpolyglycol ether
(§2) To produce a suitable preparation of active compound, 1 part by weight of active compound is mixed with the stated amount of solvents and is diluted with water, containing an emulsifier concentration of 1000 ppm, to the desired concentration. Further test concentrations are prepared by dilution with emulsifier containing water.
Maize (Zea mays) leaf sections are sprayed with a preparation of the active ingredient of the desired concentration. Once dry, the leaf sections are infested with fall armyworm larvae (Spodoptera frugiperda). After 7 days mortality in % is determined. 100% means all caterpillars have been killed and 0% means none of the caterpillars have been killed.

Assay [3] concerns adult engorged female ticks (Rhipicephalus microplus). Kind of assay: Rhipicephalus (Boophilus) microplus injection test. The note with it: 168 h, egg deposition monitored after 7 days, read-out: efficacy (infertile eggs); for pest or weed control at 4 µg/tick: 4 μg/tick injected. As for the experimental part:
Rhipicephalus (Boophilus) microplus—Iniectiontest
• Solvent: dimethyl sulfoxide
To produce a suitable preparation of active compound, 10 mg of active compound are dissolved in 0.5 mL solvent, and the concentrate is diluted with solvent to the desired concentration.
Five adult engorged female ticks (Rhipicephalus microplus) are injected with 1 μL compound solution into the abdomen. The ticks are transferred into replica plates and incubated in a climate chamber.
After 7 days egg deposition of fertile eggs is monitored. Eggs where fertility is not visible are stored in a climate chamber till hatching after about 42 days. An efficacy of 100% means all eggs are infertile; 0% means all eggs are fertile.

The subject of assay [4] is larvae of the banded cucumber beetle (Diabrotica balteata). Kind of assay: Diabrotica balteata spray test. The note with it: 168 h, 100 g/ha (=32 μg/well), after 7 days, wheat seeds, read-out: efficacy (seedling growth). As for the experimental part: Diabrotica balteata—Spray Test
(§3) • Solvent: 78.0 parts by weight of acetone • 1.5 parts by weight of dimethylformamide • Emulsifier: alkylarylpolyglycol ether
(§4) To produce a suitable preparation of active compound, 1 part by weight of active compound is mixed with the stated amount of solvent, and the concentrate is diluted with water, containing an emulsifier concentration of 1000 ppm, to the desired concentration. Further test concentrations are prepared by dilution with emulsifier containing water.
Soaked wheat seeds (Triticum aestivum) are placed in a multiple well plate filled with agar and some water and are incubated for 1 day to germinate (5 seeds per well). The germinated wheat seeds are sprayed with a test solution containing the desired concentration of the active ingredient. Afterwards each unit is infected with 10-20 larvae of the banded cucumber beetle (Diabrotica balteata).
After 7 days efficacy in % is determined. 100% means all the seedlings have grown up like in the untreated, uninfected control; 0% means none of the seedlings have grown.

The subject of assay [5] is larvae of the southern green stink bug (Nezara viridula). As to the kind of experiment: Nezara viridula spray test. The note with it: 96 h, after 4 days, barley plants. The procedure:
Nezara viridula—Spray Test
as §3, §4
Barley plants (Hordeum vulgare) are sprayed with a test solution containing the desired concentration of the active ingredient and are infested with larvae of the southern green stink bug (Nezara viridula).
After 4 days mortality in % is determined. 100% means all the stink bugs have been killed; 0% means none of the stink bugs have been killed.

In assay [6] the test system is green peach aphid (Myzus persicae). As to the kind of experiment: Myzus persicae spray test. The note with it: foliar, 120 h, after 5 days, Chinese cabbage leaf disks. As for the experimental part:
Myzus persicae—Spray Test
as §1, §2
Chinese cabbage (Brassica pekinensis) leaf disks infected with all instars of the green peach aphid (Myzus persicae), are sprayed with a preparation of the active ingredient of the desired concentration.
After 5 days mortality in % is determined. 100% means all aphids have been killed and 0% means none of the aphids have been killed.

The test system of assay [7] is adult mosquitoes Aedes aegypti strain MONHEIM. As to the kind of experiment: Aedes aegypti test (AEDSAE surface treatment & contact assay). The note with it: surface concentration 20 mg/m^2, 30 minutes exposure, 24 hours after contact, read-out: efficacy (mortality). The procedure: Aedes aegypti Test (AEDSAE Surface Treatment & Contact Assay)
• Solvent: Aceton+2000 ppm rapeseed oil methyl ester (RME)
In order to produce a sufficient, active ingredient containing solution it is necessary to solve the test compound in the solvent-mix (acetone at 2 mg/ml/RME 2000 ppm). This solution is pipetted onto a glazed tile and after evaporation of the acetone, adult mosquitoes of the species Aedes aegypti strain MONHEIM are placed onto the dried surface. The exposure time is 30 minutes.
Mortality in percent (%) is determined 24 hours after contact of the insects to the treated surface. 100% mortality means that all tested insects are dead, whereas 0% means that no insect died.

Turning to `C[C@H](NC(=O)c1cc(CC#N)cc(OC(F)(F)F)c1)c1ncnn1-c1ncc(C#N)s1` [Example I-54], the pest or weed control at 5 µg/cm2, 5 µg/cm2 in assay [1] came to 90%. The mortality (as a rule, the percentage killed) at 100 g/ha in assay [2] stood at 100%.
`C[C@H](NC(=O)c1cc(OCC(Cl)=C(Cl)Cl)cc(C(F)(F)F)c1)c1ncnn1-c1ncc(C#N)s1` [Example I-28]: the pest or weed control at 4 µg/tick in assay [3] turned out to be 100%. Further, in assay [1], the pest or weed control at 5 µg/cm2, 5 µg/cm2 is 100%. Moreover, the pest or weed control at 32 µg/disc, 100 g/ha in assay [4] worked out at 100%. Also, the mortality at 100 g/ha in assay [2] was found to be 100%.
As for `C[C@H](NC(=O)c1cc(Cl)nc(C(C)(C)C#N)c1)c1ncnn1-c1ncc(C#N)s1` [Example I-71], the pest or weed control at 32 µg/disc, 100 g/ha in assay [4] turned out to be 100%. In assay [5], the mortality at 500 g/ha turned out to be 100%. The same molecule registered a mortality at 100 g/ha in assay [2] of 100%.
With `C[C@H](NC(=O)c1cc(OC2CC2)cc(OC(F)(F)F)c1)c1ncnn1-c1ncc(C#N)s1` [Example I-64], the pest or weed control at 32 µg/disc, 100 g/ha in assay [4] was 100%. In assay [5], the mortality at 500 g/ha is 100%. Moreover, the mortality at 100 g/ha in assay [2] turned out to be 100%.
Consider `Cc1nc([C@H](C)NC(=O)c2cc(Cl)cc(C(C)(C)C#N)c2)n(-c2ncc(C(=O)N(C)C)s2)n1` [Example I-40], for which the mortality at 100 g/ha in assay [6] is 90%; in assay [2], 100%. For the same molecule, the pest or weed control at 32 µg/disc, 100 g/ha in assay [4] stood at 80%.
For `C[C@H](NC(=O)c1cc(OCC=C(Cl)Cl)cc(C(F)(F)F)c1)c1ncnn1-c1ccc(C#N)cn1` [Example I-26], the pest or weed control at 5 µg/cm2, 5 µg/cm2 in assay [1] stood at 100%. The pest or weed control at 32 µg/disc, 100 g/ha in assay [4] came to 100%.
Regarding `Cc1nc([C@H](C)NC(=O)c2cc(Cl)nc(C(C)(C)C#N)c2)n(-c2ncc(C#N)s2)n1` [Example I-70], in assay [4], the pest or weed control at 32 µg/disc, 100 g/ha is 100%. In assay [5], this molecule came in with a mortality at 500 g/ha of 100%. The same molecule returned a mortality at 100 g/ha in assay [2] of 100%.
Regarding `CC(C)c1cc(C(=O)N[C@@H](C)c2ncnn2-c2ccc(C#N)cn2)cc(C(C)(C)C#N)c1` [Example I-48], in assay [1], the pest or weed control at 5 µg/cm2, 5 µg/cm2 came out at 100%. Further, in assay [4], the pest or weed control at 32 µg/disc, 100 g/ha is 100%. Further, the mortality at 100 g/ha in assay [2] is 83%.
As to `CNC(=O)c1cnc(-n2ncnc2[C@H](C)NC(=O)c2cc(OC(F)(F)F)cc(C(C)(C)C#N)c2)s1` [Example I-74], the mortality at 100 g/ha in assay [6], in assay [5] (100 g/ha) and in assay [2] was 100% each time. In addition, in assay [4], the pest or weed control at 32 µg/disc, 100 g/ha is 100%. In assay [5], this molecule gave a mortality at 500 g/ha of 100%.
For `C[C@H](NC(=O)c1cc(OC(F)(F)F)cc(C(C)(C)C#N)c1)c1ncnn1-c1ncc(C(=O)N(C)C)s1` [Example I-73], the mortality at 100 g/ha in assay [6] and in assay [2] was 100% throughout. In addition, in assay [4], the pest or weed control at 32 µg/disc, 100 g/ha amounted to 100%. For the same molecule, the mortality at 500 g/ha in assay [5] turned out to be 100%.
Take `C[C@H](NC(=O)c1cc(Cl)nc(C(C)(C)C#N)c1)c1ncnn1-c1cc(C#N)ncn1` [Example I-75]: in assay [4], the pest or weed control at 32 µg/disc, 100 g/ha is 100%. Also, the mortality at 500 g/ha in assay [5] came out at 100%. Moreover, in assay [2], the mortality at 100 g/ha stood at 100%.
For the molecule `C[C@H](NC(=O)c1cc(Cl)cc(Oc2ccccc2)c1)c1ncnn1-c1ccc(C#N)cn1` [Example I-7], the pest or weed control at 4 µg/tick in assay [3] worked out at 100%. Further, the pest or weed control at 20 µg/tick in assay [3] (20 μg/tick injected) was found to be 100%. For the same molecule, the pest or weed control at 5 µg/cm2, 5 µg/cm2 in assay [1] turned out to be 100%.
For `C[C@H](NC(=O)c1cc(Br)cc(C(F)(F)C2CC2)c1)c1ncnn1-c1ncc(C#N)s1` [Example I-53], the mortality at 20 mg/m2 in assay [7] lay within 80 to 100%. In assay [4], the pest or weed control at 32 µg/disc, 100 g/ha stood at 100%. In assay [2], the mortality at 100 g/ha is 100%.
On to `C[C@H](NC(=O)c1cc(OC2CC2)cc(OC(F)(F)F)c1)c1nc(C2CC2)nn1-c1ncc(C#N)s1` [Example I-65], for which the pest or weed control at 5 µg/cm2, 5 µg/cm2 in assay [1] was 100%.
